Results as given in patent publication US11419881B2, “Treatment of migraine” (priority 2019, dated 2022).
Where two headings read alike, the source gives them in different places.

Assays:
[1] = Reflex (autonomic) activity after nasal administration in human volunteers; format: in vivo; conditions: nasal 1.6 μg
Description: (§1) The half effective dose of this effect was 0.087 μg.

[2] = Preclinical pharmacokinetic studies, intravenous doses; format: in vivo, rats, rabbits, or dogs; conditions: single repeated intravenous doses up to 2.5 mg/kg
[3] = molecular target: T1, androgen receptors (Homo sapiens, UniProt P10275); assay: In vitro agonist/antagonist activity on androgen receptors; format: biochemical
T1 sequence (P10275 1-920): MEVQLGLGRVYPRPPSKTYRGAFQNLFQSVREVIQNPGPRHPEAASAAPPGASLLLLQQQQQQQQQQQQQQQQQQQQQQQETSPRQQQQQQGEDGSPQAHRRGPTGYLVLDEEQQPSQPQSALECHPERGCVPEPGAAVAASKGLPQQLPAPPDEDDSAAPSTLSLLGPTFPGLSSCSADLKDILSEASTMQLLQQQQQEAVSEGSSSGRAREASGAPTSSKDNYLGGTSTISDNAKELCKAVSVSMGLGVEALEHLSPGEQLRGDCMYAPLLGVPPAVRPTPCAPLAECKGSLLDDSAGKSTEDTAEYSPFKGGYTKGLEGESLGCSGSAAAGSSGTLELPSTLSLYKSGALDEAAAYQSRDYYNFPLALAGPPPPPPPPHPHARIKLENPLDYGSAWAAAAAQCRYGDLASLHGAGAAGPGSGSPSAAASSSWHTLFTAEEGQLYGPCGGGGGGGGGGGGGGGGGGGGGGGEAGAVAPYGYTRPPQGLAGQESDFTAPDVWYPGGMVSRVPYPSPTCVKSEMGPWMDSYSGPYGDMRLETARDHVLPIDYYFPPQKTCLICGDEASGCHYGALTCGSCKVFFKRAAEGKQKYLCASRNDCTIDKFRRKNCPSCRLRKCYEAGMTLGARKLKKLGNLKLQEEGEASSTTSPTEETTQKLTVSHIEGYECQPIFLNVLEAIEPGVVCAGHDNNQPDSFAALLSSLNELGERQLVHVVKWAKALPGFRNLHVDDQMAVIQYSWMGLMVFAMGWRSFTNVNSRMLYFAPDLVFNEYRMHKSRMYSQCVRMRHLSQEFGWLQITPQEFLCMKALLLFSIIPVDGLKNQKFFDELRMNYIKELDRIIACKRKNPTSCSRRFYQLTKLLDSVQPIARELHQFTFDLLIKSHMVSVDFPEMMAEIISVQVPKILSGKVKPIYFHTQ

[4] = test system: nasal septal chemosensory mucosa; assay: Electrophysiology: depolarization of the nasal septal chemosensory mucosa; design: species or system human
[5] = Acute and multidose (28 day) toxicity studies, nasal and intravenous; format: in vivo, rats, mice, rabbits and dogs
[6] = test system: estrogen receptors; assay: In vitro agonist/antagonist activity on estrogen receptors; format: biochemical
[7] = molecular target: T2, glucocorticoid receptors (Homo sapiens, UniProt P04150); assay: In vitro agonist/antagonist activity on glucocorticoid receptors; format: biochemical
T2 sequence (P04150 1-777): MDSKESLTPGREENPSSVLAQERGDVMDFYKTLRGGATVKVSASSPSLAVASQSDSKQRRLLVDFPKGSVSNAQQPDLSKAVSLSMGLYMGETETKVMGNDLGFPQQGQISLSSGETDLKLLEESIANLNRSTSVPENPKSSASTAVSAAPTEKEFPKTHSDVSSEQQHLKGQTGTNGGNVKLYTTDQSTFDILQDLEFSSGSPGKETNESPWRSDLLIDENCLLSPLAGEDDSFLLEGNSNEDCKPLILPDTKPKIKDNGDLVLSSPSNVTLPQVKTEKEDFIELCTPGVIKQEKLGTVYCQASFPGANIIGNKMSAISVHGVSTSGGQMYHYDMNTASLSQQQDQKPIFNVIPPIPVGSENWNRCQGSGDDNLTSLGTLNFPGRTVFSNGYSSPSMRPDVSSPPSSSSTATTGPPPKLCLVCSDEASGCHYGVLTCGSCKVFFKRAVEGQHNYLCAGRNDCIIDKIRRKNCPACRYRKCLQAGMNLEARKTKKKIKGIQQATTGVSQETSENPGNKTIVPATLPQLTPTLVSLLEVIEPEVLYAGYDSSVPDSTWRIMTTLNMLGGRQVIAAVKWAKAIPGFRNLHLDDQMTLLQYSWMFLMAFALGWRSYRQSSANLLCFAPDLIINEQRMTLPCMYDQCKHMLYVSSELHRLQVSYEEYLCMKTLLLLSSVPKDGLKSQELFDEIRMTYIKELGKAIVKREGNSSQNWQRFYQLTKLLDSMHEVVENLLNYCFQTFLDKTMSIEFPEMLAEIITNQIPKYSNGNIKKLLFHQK

[8] = Nasal spray 0.5 μg versus vehicle in 14 women of reproductive age, physiologic parameters; format: in vivo, human; conditions: compared to vehicle
[9] = in vivo
[10] = Nasal spray 1.6 μg in women of reproductive age, core body temperature and sympathoadrenergic tone; format: in vivo, human
Description: It also changed the tone of the sympathoadrenergic system (as assessed by measuring physiologic sinus arrhythmia) within 5 minutes of administration, and the effect persisted for 15 to 20 minutes.

[11] = molecular target: T3, progestin receptors (Homo sapiens, UniProt P06401); assay: In vitro agonist/antagonist activity on progestin receptors; format: biochemical
T3 sequence (P06401 1-933): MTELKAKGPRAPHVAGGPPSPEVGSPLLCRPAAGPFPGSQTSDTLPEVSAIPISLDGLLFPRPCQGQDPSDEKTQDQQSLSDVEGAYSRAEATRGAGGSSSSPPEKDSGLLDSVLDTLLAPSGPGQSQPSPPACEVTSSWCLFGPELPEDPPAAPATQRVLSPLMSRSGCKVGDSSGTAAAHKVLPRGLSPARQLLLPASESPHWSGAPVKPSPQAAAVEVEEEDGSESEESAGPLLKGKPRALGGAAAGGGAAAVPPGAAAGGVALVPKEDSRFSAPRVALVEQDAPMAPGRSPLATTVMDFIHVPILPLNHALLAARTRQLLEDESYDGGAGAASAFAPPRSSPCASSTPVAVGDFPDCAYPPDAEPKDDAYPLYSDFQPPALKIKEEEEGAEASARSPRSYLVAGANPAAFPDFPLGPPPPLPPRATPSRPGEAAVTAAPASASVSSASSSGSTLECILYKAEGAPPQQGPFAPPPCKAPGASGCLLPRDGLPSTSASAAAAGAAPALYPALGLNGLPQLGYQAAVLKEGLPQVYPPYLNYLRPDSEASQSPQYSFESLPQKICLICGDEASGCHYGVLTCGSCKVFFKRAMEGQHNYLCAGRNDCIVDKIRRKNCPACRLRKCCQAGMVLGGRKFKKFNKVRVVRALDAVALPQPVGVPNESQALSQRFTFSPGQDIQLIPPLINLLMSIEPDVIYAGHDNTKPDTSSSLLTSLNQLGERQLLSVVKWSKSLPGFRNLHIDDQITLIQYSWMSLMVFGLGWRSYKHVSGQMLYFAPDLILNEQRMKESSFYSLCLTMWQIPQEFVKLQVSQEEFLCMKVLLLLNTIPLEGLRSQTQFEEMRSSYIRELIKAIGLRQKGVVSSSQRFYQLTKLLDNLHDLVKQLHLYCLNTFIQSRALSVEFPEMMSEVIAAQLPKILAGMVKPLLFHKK

[12] = test system: isolated human nasal chemosensory neurons; assay: Electrophysiology: inward currents in isolated human nasal chemosensory neurons; format: cell-based
[13] = test system: nasal chemosensory mucosa; assay: Electrogram from the nasal chemosensory mucosa of human volunteers; format: in vivo
Description: as §1

[14] = Exploratory single-blind study in chronic migraine subjects (HAM-A, HAM-D, VRS, resting state fMRI)
[15] = format: in vivo, human
[16] = Hot flashes in menopausal women after nasal administration; format: in vivo, human
Source text: 16α,17α-Epoxy-10β-hydroxyestr-4-en-3-one decreased parasympathetic system tone resulting in increased sympathetic activity and stimulation of β2 adrenergic receptors in the bronchiole smooth muscle that induced bronchodilation; (b) increased skin conductance amplitude is the result of increased skin secretions, which are produced by preponderance of the sympathetic nervous system tone (or decreased parasympathetic tone); (c) decreased body temperature is explained by increased activity of the posterior (adrenergic) hypothalamus and decreased parasympathetic tone (anterior hypothalamus).

[17] = Preclinical pharmacokinetic studies, nasal doses; format: in vivo; conditions: repeated or single escalating nasal doses up to 100 μg/rat, 400 μg/rabbit, 600 μg/dog
[18] = In vivo bone marrow micronucleus test
[19] = Reproductive toxicity studies in pregnant rabbits; format: in vivo; conditions: intravenous up to 2.5 mg/kg/day during organogenesis
[20] = Ames reverse mutation assay
[21] = migraine subjects, 6.4 μg nasal, relative to placebo
[22] = after single dose nasal administration
[23] = women with PMDD, nasal, versus placebo

With `C[C@]12CC[C@H]3[C@@H](CCC4=CC(=O)CC[C@@]43O)[C@@H]1C[C@H]1O[C@H]12` [16α,17α-epoxy-10β-hydroxyestr-4-en-3-one] the “body core temperature (external ear canal)” value [1] was “decreased body core temperature”, the cardiac rate [1] was “no significant change” and the “depth of the inspiratory cycle of respiration” value [1] was “significantly increased amplitude”. The “latency of modulation of reflex activity after the electrogram” value [1] was 5 to 10 s, the “skeletal muscle tone (electromyogram, chin muscles)” value [1] was “decreased skeletal muscle tone” and the “skin conductance (electrodermal activity)” value ([1]; palmar surface of fourth and fifth finger) was “increased amplitude of the skin conductance”. The respiration rate ([1]; within physiologic range) was “decreased respiration rate”, the “plasma concentrations, dose dependence” value [2] was “dose-proportional” and the “plasma concentrations, time course” value [2] was “decreased rapidly”. The “agonist or antagonist activity on androgen receptors” value [3] was “no agonist or antagonist activity”, the “depolarization of the nasal septal chemosensory mucosa” value [4] was “electrotonic depolarization” and the “deaths, adverse clinical signs, effects on laboratory or pathology parameters” value ([5]; same nasal and intravenous doses, all species) was “no deaths or adverse clinical signs or effects on laboratory or pathology parameters observed”. For the same molecule, the tolerability ([5]; single nasal up to 100 μg/rat, 400 μg/rabbit, 600 μg/dog, repeated nasal up to 50 μg/rat/day, 300 μg/dog/day, iv single and repeated up to 2.5 mg/kg, 28 day) was “well tolerated in all species tested”, the “agonist or antagonist activity on estrogen receptors” value [6] was “no agonist or antagonist activity” and the “agonist or antagonist activity on glucocorticoid receptors” value [7] was “no agonist or antagonist activity”. The cardiac frequency [8] was “not statistically significant increase”, the core body temperature [8] was “statistically significant decreases” and the galvanic skin reflex [8] was “statistically significant decreases”. The respiratory frequency [8] was “statistically significant decreases”, the skeletal muscle tone [8] was “statistically significant decreases” and the systemic exposure [9] was “lack of systemic exposure”. For the same molecule, the “decrease in core body temperature” value [10] was 1±0.23 °C, the “latency of decrease in core body temperature” value [10] was 0.5 to 4 min and the “persistence of change of sympathoadrenergic tone” value [10] was 15 to 20 min. For the same molecule, the “persistence of decrease in core body temperature” value [10] was 9 ± 2.5 min, the “time to change of sympathoadrenergic tone (physiologic sinus arrhythmia)” value [10] was ≤ 5 minutes and the “agonist or antagonist activity on progestin receptors” value [11] was “no agonist or antagonist activity”. For the same molecule, the “inward currents in isolated human nasal chemosensory neurons” value ([12]; isolated neurons) was “induced inward currents”, the “concentration giving maximal response (amplitude)” value ([12]; response amplitude increased with concentration) was 10^−7 to 10^−6 M and the “half effective dose of electrogram activation” value ([13]; human volunteers of both sexes) was 0.087 µg. The “activation of the electrogram recorded from the nasal chemosensory mucosa” value ([13]; microgram quantities, volunteers of both sexes) was “concentration dependent activation”, the “functional connectivity of the amygdala with the anterior occipital lobe and right middle occipital lobe (fMRI)” value [14, 21] was “increased functional connectivity” and the “functional connectivity of the hypothalamus with the anterior orbital gyrus, right medial orbital gyrus and pons (fMRI)” value [14, 21] was “decreased functional connectivity”. The “functional connectivity of the right thalamus with left orbitofrontal cortex, superior parietal lobe, left insular cortex and left primary motor cortex (fMRI)” value [14, 21] was “decreased functional connectivity”, the “functional connectivity of the right thalamus with the left somatosensory cortex (fMRI)” value [14, 21] was “increased functional connectivity” and the tolerability ([14]; single nasal 6.4 μg, all three subjects) was “tolerated”. The “mean decrease in headache pain intensity score (VRS, 6-point) relative to placebo” value ([14]; two migraine subjects, single nasal 6.4 μg, 15 minutes, p<0.01) was 2.5, the “anxiety scores (HAM-A)” value ([14]; two migraine subjects, single nasal 6.4 μg, p<0.01) was “significantly improved” and the “depression scores (HAM-D)” value ([14]; two migraine subjects, single nasal 6.4 μg, not statistically significant) was “improvement trend”. The persistence of improvements [15, 22] was “approximately 5 hours”, the “time to appearance of improvements” value [15, 22] was ≤ 30 min and the serious adverse events ([15]; in vivo) was “No serious adverse events were reported”. For the same molecule, the side effects ([15]; in vivo) was “minimal and similar to administration of placebo”, the “cortical behavioral symptoms (headache, tension)” value [15, 23] was “significant improvements” and the “hypothalamic behavioral symptoms (fatigue, anger, craving for foods)” value [15, 23] was “significant improvements”. The “limbic system behavioral symptoms (mood swings, depression, lack of interest)” value [15, 23] was “significant improvements”, the “number, severity and bother of hot flashes” value [16] was “decreased number, severity and bother of hot flashes” and the systemic exposure [17] was “very low systemic exposure”. For the same molecule, the “mutagenic or clastogenic potential” value [18] was “no evidence of mutagenic or clastogenic potential”, the “effects on maternal or litter parameters” value [19] was “no adverse effects on maternal or litter parameters” and the “mutagenic or clastogenic potential” value [20] was “no evidence of mutagenic or clastogenic potential”.
